Where no end group is shown, it is not given here.
What was measured:
trypsin [1] = target: T1, trypsin (Sus scrofa, UniProt P00761); settings: cited from earlier work
chymotrypsin [2] = target: T2, chymotrypsin (Bos taurus, UniProt P00766); settings: cited from earlier work
pepsin = pepsin (Sus scrofa, UniProt P00791); settings: cited from earlier work
mice = experiment: Toxicity and behavior in mice; type: in vivo; settings: i.p. 40 μg/g
proteinase K = proteinase K (Parengyodontium album, UniProt P06873); experiment: Proteolytic and thermal stability against proteinase K; type: in vitro ADME; settings: proteinase K from Tritirachium album; 50 °C, up to 48 h
Chain of proteinase K (P06873 106-384): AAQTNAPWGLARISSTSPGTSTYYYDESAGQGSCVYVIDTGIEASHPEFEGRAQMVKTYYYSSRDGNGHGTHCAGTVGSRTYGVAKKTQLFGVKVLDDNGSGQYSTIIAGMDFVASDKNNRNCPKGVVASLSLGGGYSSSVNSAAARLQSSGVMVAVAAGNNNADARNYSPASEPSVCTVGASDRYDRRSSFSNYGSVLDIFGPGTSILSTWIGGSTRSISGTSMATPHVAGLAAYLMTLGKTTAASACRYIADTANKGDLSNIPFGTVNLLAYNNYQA

chymotrypsin [3] = target: T2, chymotrypsin; experiment: Chymotrypsin inhibitory assay; type: biochemical; settings: up to the concentration of 100 μg/mL
chicks = experiment: Toxicity and behavior in chicks; type: in vivo; settings: i.c.v. 60 μg/g
[4] = test system: murine cerebrocortical neuron cells; experiment: Veratridine-induced neuronal Ca2+ influx; type: cell-based; settings: data not shown
[5] = Solubility in water or low pH buffers; settings: pure water or low pH buffers
trypsin [6] = target: T1, trypsin; experiment: Trypsin inhibitory assay; type: biochemical; settings: up to the concentration of 100 μg/mL
thermolysin = target: T3, thermolysin (Bacillus thermoproteolyticus, UniProt P00800); experiment: Proteolytic and thermal stability against thermolysin; type: in vitro ADME; settings: thermolysin from Bacillus thermoproteolyticus Rokko; 65 °C, up to 12 h
T3 sequence (P00800 233-548): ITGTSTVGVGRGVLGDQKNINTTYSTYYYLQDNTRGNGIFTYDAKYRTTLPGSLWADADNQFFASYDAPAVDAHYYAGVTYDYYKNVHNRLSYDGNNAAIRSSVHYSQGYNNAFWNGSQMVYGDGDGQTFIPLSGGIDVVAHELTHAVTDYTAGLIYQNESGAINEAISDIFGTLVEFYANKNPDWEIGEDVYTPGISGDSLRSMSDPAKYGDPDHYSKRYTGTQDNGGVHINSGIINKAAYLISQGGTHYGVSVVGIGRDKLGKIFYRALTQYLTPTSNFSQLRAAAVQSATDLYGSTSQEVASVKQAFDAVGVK

T1 sequence (P00761 9-231): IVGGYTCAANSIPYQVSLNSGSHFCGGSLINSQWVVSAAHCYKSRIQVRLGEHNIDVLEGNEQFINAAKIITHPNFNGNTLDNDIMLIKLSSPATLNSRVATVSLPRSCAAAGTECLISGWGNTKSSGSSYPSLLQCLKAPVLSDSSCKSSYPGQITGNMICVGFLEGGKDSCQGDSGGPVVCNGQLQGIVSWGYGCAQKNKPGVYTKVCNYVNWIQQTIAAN
Chain of pepsin (P00791 60-385): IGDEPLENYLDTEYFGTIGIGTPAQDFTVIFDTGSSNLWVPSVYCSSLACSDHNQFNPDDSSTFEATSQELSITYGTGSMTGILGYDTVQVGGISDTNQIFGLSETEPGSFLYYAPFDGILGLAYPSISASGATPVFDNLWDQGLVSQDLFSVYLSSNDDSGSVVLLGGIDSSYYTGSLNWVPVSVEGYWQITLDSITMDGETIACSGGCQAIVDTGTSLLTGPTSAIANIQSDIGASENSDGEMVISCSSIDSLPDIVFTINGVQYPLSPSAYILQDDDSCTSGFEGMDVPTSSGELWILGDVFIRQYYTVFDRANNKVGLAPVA

Row | Substance | stability towards trypsin (trypsin [1]) | stability towards chymotrypsin (chymotrypsin [2]) | stability towards pepsin (pepsin) | toxic effects or behavior changes in mice (mice) | proteolytic and thermal stability against proteinase K (proteinase K) | effect in chymotrypsin inhibitory assay (chymotrypsin [3]) | toxic effects or behavior changes in chicks (chicks) | effect on neuronal Ca2+ influx [4] | solubility [5] | effect in trypsin inhibitory assay (trypsin [6]) | stability to trypsin (trypsin [1]) | proteolytic and thermal stability against thermolysin (thermolysin)
1 | kalata B1 (GLPVCGETCVGGTCNTPGCTCSWPVCTRN; not fully specified; ends and bridges not checked; UniProt P56254 89-117, looked up) | exhibits stability | exhibits stability | exhibits stability | – | – | – | – | – | – | – | – | –
2 | asteropsin C [ASPC] | – | – | – | no toxic effects or behavior changes | exceptional proteolytic and thermal stability | no effects | no toxic effects or behavior changes | no effect | virtually insoluble | no effects | – | –
3 | ω-conotoxin MVIIA [ziconotide] | – | – | – | – | – | – | – | – | – | – | unstable | –
4 | asteropsin A [ASPA] | – | – | – | no toxic effects or behavior changes | exceptional proteolytic and thermal stability | no effects | no toxic effects or behavior changes | – | – | no effects | – | exceptional proteolytic and thermal stability

Reference: article PMC4139099 (Biochimica et biophysica acta, 2013)
